Test results: US20130078287A1 (Horizon Pharma USA, Inc., priority 2010, published 2013)

Key:
[1] = tested on: subjects expected to require daily NSAID therapy; assay: Pooled REDUCE-1 and REDUCE-2: UGI ulcers by subgroup; type: in vivo, human; details: for Subjects who developed an upper gastrointestinal ulcer: clinical studies of HZT-501; for Proportion of subjects who developed at least one UGI ulcer: pooled, Week 24 life table
From the text: In addition to examining potential risk factors together in a statistical model, the effect of treatment was examined in the combined studies overall and within various subgroups of interest. These subgroups included age category (<65, […]), prior history of UGI ulcer (yes, no), use of low-dose aspirin (LDA) (yes, no), and gender. […] Treatment was the only factor included in the model.

[2] = tested on: subjects expected to require daily NSAID therapy; assay: Integrated REDUCE-1 and REDUCE-2: adverse events
[3] = integrated REDUCE-1 and REDUCE-2

SMILES: CC(C)Cc1ccc(C(C)C(=O)O)cc1 (stereo not shown) [Ibuprofen, 2-(p-isobutylphenyl)propionic acid]
- Subjects who developed an upper gastrointestinal ulcer ([1]; subjects who used low-dose aspirin): 35%
- Subjects who developed an upper gastrointestinal ulcer ([1]; subjects with a prior history of gastrointestinal ulcer): 24%
- Proportion of subjects who developed at least one UGI ulcer ([1]; Age <65 years): 26.3%
- Proportion of subjects who developed at least one UGI ulcer ([1]; Age ≧65 years): 26.6%
- Proportion of subjects who developed at least one UGI ulcer ([1]; Age ≧65 years, listed as ibuprofen): 27%
- Proportion of subjects who developed at least one UGI ulcer ([1]; Female): 28.3%
- Proportion of subjects who developed at least one UGI ulcer ([1]; Race Other): 13.3%
- AEs Leading to Discontinuation, Incidence (%) [2, 3]: 7.6%
- AEs by Relatedness: Possibly Related, Incidence (%) [2, 3]: 25.0%
- AEs by Relatedness: Probably Not Related, Incidence (%) [2, 3]: 33.7%
- AEs by Severity: Life Threatening, Incidence (%) [2, 3]: 0.4%
- AEs by Severity: Moderate, Incidence (%) [2, 3]: 25.0%
- AEs by Severity: Severe, Incidence (%) [2, 3]: 6.8%
- Subjects with at least one AE, Incidence (%) [2, 3]: 58.7%
- TEAE: Abdominal distension ([2]; integrated, safety population): 1.4 (7) %
- TEAE: Abdominal pain ([2]; integrated, safety population): 1.6 (8) %
- TEAE: Abdominal pain upper ([2]; integrated, safety population): 2.5 (13) %
- TEAE: Abdominal tenderness ([2]; integrated, safety population): 1.0 (5) %
- TEAE: Anaemia ([2]; integrated, safety population): 1.4 (7) %
- TEAE: Arthralgia ([2]; integrated, safety population): 1.8 (9) %
- TEAE: Back pain ([2]; integrated, safety population): 0.8 (4) %
- TEAE: Blood and lymphatic system disorders ([2]; integrated, safety population): 1.8 (9) %
- TEAE: Bronchitis ([2]; integrated, safety population): 1.2 (6) %
- TEAE: Constipation ([2]; integrated, safety population): 4.1 (21) %
- TEAE: Cough ([2]; integrated, safety population): 2.0 (10) %
- TEAE: Diarrhoea ([2]; integrated, safety population): 4.3 (22) %
- TEAE: Dizziness ([2]; integrated, safety population): 1.4 (7) %
- TEAE: Dyspepsia ([2]; integrated, safety population): 8.0 (41) %
- TEAE: Dyspnoea ([2]; integrated, safety population): 1.0 (5) %
- TEAE: Fall ([2]; integrated, safety population): 1.0 (5) %
- TEAE: Fatigue ([2]; integrated, safety population): 1.0 (5) %
- TEAE: Flatulence ([2]; integrated, safety population): 0.4 (2) %
- TEAE: Gastritis ([2]; integrated, safety population): 1.4 (7) %
- TEAE: Gastro-oesophageal reflux disease ([2]; integrated, safety population): 3.1 (16) %
- TEAE: Gastroenteritis viral ([2]; integrated, safety population): 0.8 (4) %
- TEAE: Gastrointestinal disorders ([2]; integrated, safety population): 28.4 (145) %
- TEAE: General disorders and administration site conditions ([2]; integrated, safety population): 4.5 (23) %
- TEAE: Headache ([2]; integrated, safety population): 3.3 (17) %
- TEAE: Hypertension ([2]; integrated, safety population): 2.2 (11) %
- TEAE: Infections and infestations ([2]; integrated, safety population): 20.7 (106) %
- TEAE: Influenza ([2]; integrated, safety population): 1.6 (8) %
- TEAE: Injury, poisoning and procedural complications ([2]; integrated, safety population): 5.1 (26) %
- TEAE: Insomnia ([2]; integrated, safety population): 1.0 (5) %
- TEAE: Muscle spasms ([2]; integrated, safety population): 0.4 (2) %
- TEAE: Musculoskeletal and connective tissue disorders ([2]; integrated, safety population): 6.8 (35) %
- TEAE: Musculoskeletal pain ([2]; integrated, safety population): 0.8 (4) %
- TEAE: Nasopharyngitis ([2]; integrated, safety population): 2.7 (14) %
- TEAE: Nausea ([2]; integrated, safety population): 4.7 (24) %
- TEAE: Nervous system disorders ([2]; integrated, safety population): 6.1 (31) %
- TEAE: Oedema peripheral ([2]; integrated, safety population): 1.8 (9) %
- TEAE: Pain in extremity ([2]; integrated, safety population): 0.8 (4) %
- TEAE: Pharyngolaryngeal pain ([2]; integrated, safety population): 1.2 (6) %
- TEAE: Psychiatric disorders ([2]; integrated, safety population): 3.1 (16) %
- TEAE: Rash ([2]; integrated, safety population): 1.0 (5) %
- TEAE: Respiratory, thoracic and mediastinal disorders ([2]; integrated, safety population): 7.0 (36) %
- TEAE: Sinus congestion ([2]; integrated, safety population): 1.4 (7) %
- TEAE: Sinusitis ([2]; integrated, safety population): 2.7 (14) %
- TEAE: Skin and subcutaneous tissue disorders ([2]; integrated, safety population): 3.5 (18) %
- TEAE: Stomach discomfort ([2]; integrated, safety population): 1.6 (8) %
- TEAE: Upper respiratory tract infection ([2]; integrated, safety population): 4.1 (21) %
- TEAE: Urinary tract infection ([2]; integrated, safety population): 2.3 (12) %
- TEAE: Vascular disorders ([2]; integrated, safety population): 2.7 (14) %
- TEAE: Vomiting ([2]; integrated, safety population): 1.8 (9) %
- Total Subjects With at Least One TEAE ([2]; integrated, safety population): 58.7 (300) %
